Results as given in US20100240754A1, “UNSATURATED FATTY AMINO ACID DERIVATIVES AND USE THEREOF IN DERMAL COSMETOLOGY” (Pierre Fabre Demo-Cosmetique, priority 2007, published 2010).
Entries after “also recorded” stand apart in the source; their conditions may differ.

How the values were obtained:
[1] = tested on: fibroblast cell line L929; assay: In vitro assay of intracellular OASes (H2DCF-DA probe) after H2O2/iron oxidative stress; assay type: cell-based, murine; details: Mus musculus, L929, 3 h pretreatment, H2O2 200 μM / iron 2 mM, read-out: percentage of inhibition of intracellular OAS production (protection); for inhibition at 20 pg/mL: dose 0.02 ng/mL; for inhibition at 0.0002 µg/mL: dose 0.2 ng/mL; for inhibition at 0.002 µg/mL: dose 2 ng/mL; for inhibition at 0.02 µg/mL: dose 20 ng/mL
Source text: We have set up a model for an in vitro study of oxidative stress induced by H2O2/iron, H2O2 which massively generates intracellular OASes by a chain reaction triggered by the oxidation of membrane lipids.
This technique is based on the use of a fluorescent probe, 6-carboxy-2′, 7′ dichlorodihydrofluorescein diacetate, di(acetoxymethyl ester) (H2DCF-DA), which, once it has penetrated the cell, is deacetylated by the intracellular esterases then forming H2DCF. This product is oxidized by intracellular OASes into a highly fluorescent compound: 2′,7′-dichlorofluorescein, (DCF) (Suematsu M et al, 1996, Free Radicals Practical Approach, Punchard ed. P83-99).
Cutaneous murine fibroblast cell line L929.
The tested concentrations are non-cytotoxic concentrations. Cytoxicity was evaluated by the neutral red method, after incubation of the product for 3 hours.
The reference anti-radical product is vitamin E or α-tocopherol (MW: 430.7) (SIGMA, ref.: T-1539).
The mother solution is prepared at 400 mg/mL in DMSO and stored at −20° C. The pretreatment solution is prepared extemporaneously at 400 μg/mL in a culture medium without FCS.
For evaluating unsaturated fatty amino acid derivatives, the dilutions are prepared in the culture medium extemporaneously for a range of concentrations of 0.02, 0.2, 2 and 20 ng/mL.
The cells of the fibroblast line L929 are sown in microplates with 96 wells with a flat bottom in 100 μL of DMEM supplemented with 10% of FCS, and they are then incubated overnight at 37° C. in a humid atmosphere with 5% CO2.
The dilutions of the products to be tested and of the reference molecule are conducted in culture mediums without FCS, and then deposited in 7 wells in an amount of 100 μL per well.
The cells are then incubated for 3 hours at 37° C. in a humid atmosphere with 5% CO2.
The cells are rinsed with PBS 1× in an amount of 100 μL per well. Next they are set to incubate for 30 min at 37° C. in a humid atmosphere with 5% CO2 and with 50 μL of H2DCF-DA probe at 5 μM.
After 30 min in contact with the probe alone, the cells are incubated for 30 min at 37° C. in a humid atmosphere with […] with addition of 25 μL of H2O2 at 800 μM and 25 μL of 8 mM ferrous and ferric iron solution, in order to have final concentrations of 200 μM of H2O2 and 2 mM of ferrous and ferric iron.
The cells are then rinsed with PBS 1× in an amount of 100 μL per well, and then incubated for 30 min at 37° C. in a humid atmosphere with 5% CO2 and with 100 μL of PBS 1×.
These 1 h 30 minutes of incubation at 37° C. allow the intracellular esterases to deacetylate the H2DCF probe, oxidizable by intracellular OASes into DCF; a fluorescent compound, the formation of which is proportional to the amount of intracellular OASes.
The fluorescence intensity is read with the cytofluorimeter at λexcitation=485 nm and λemission=530 nm. It reflects the amount of produced intracellular OASes.
With the below ratio, it is possible to calculate for each concentration of tested product the % of protection against production of intracellular OASes (since the fluorescence intensity or FI expresses intracellular release of OASes).
The values indicated in Table 3 are percentages of inhibition of intracellular OAS production following an exogenous oxidative stress, relatively to <> cells (100%) and to <> cells (0%).

fibroblast line L929 = assay: Test of TBARS: lipid peroxidation after H2O2-Fe2+/Fe3+ stress; assay type: cell-based, murine; details: for inhibition at 20 pg/mL: Mus musculus, Dose = 0.02 ng/mL, L929, 16 hours pretreatment, H2O2-Fe2+/Fe3+ (200 μM-1 mM) 1 hour, TBARS, read-out: % of protection of membrane lipids, Average; for antiradical activity and protection of cell membranes, in words: L929, TBARS test, conclusion from Table 4
Source text: In order to evaluate membrane alteration, we have measured lipid peroxidation by an assay in vitro of the complexes between lipid oxidation products and thiobarbituric acid. These complexes are called TBARS (Thiobarbituric Acid Reactive Substances) and give the name to the test: Test of TBARS.
In order to mimic a chemical oxidative stress, we treated a fibroblast line, L929, with a complex composed of hydrogen peroxide (H2O2) and of iron (Fe^2+/Fe^3+) thereby regenerating Fenton's reaction, source of FORs and more particularly of hydroxyl radicals)(OH^0) (D. A. Vessey et al., 1992):
The products were evaluated on the murine fibroblast line L929. The cells were pretreated with the different concentrations of products for 16 hours and were then stimulated with the complex H2O2—Fe^2+/Fe^3+ (200 μM-1 mM) for 1 hour.
Mother solutions: 100 mg/mL, ethanol, 4° C. Final solutions: 0.02 ng/mL.
Peroxidation of membrane lipids is analyzed by measuring the TBARS (Procedure Ref. PL No. 2, according to Morlière et al., 1991).
In an acid medium, at 95° C., complexes noted as TBARS for Thio Barbituric Acid Reactive Substance are formed, between the lipid oxidation products (malonic dialdehyde or MDA) and thiobarbituric acid (TBA) which may be assayed by fluorescence relatively to a standard range with MDA. The dosage of the TBARS is then expressed in pmol/μg of proteins. The proteins and the TBARS are assayed in the intracellular medium.
From the calculation of the TBARS in pmol/μg of proteins, we calculated the protective efficiency of different products against oxidation of membrane lipids.
Seven independent experiments were conducted. During these experiments, various compounds were evaluated (with the test, it is not possible to evaluate more than 10 molecules at the same time). The compounds which were evaluated several times were selected according to the results obtained in the other test also measuring antiradical activity (test for assaying oxygen active species, OASes).

Compound | inhibition at 20 pg/mL [1] | inhibition at 0.0002 µg/mL [1] | inhibition at 0.002 µg/mL [1] | inhibition at 0.02 µg/mL [1] | inhibition at 20 pg/mL (fibroblast line L929) | antiradical activity and protection of cell membranes, in words (fibroblast line L929)
Cl.NCCC/C=C/C(=O)O [Compound No. 1, (E)-6-amino-hex-2-enoic acid] | 12% | 13% | 5% | 1% | 13.4% | 
NCCC/C=C(/F)C(=O)O [Compound No. 2, (E)-6-amino-2-fluoro-hex-2-enoic acid] | 14% | 19% | 14% | -13% | 7.63% | 
Cl.NCCCC/C=C/C(=O)O [Compound No. 4, (E)-7-amino-hept-2-enoic acid] | 13% | 12% | 8% | -14% | 8.75% | 
NCCCCC=C(F)C(=O)O [Compound No. 5, (Z+E)-7-amino-2-fluoro-hept-2-enoic acid] | 18% | 23% | 26% | 23% | 36.3% | significant antiradical activity
Cl.NCCCCC/C=C/C(=O)O [Compound No. 7, (E)-8-amino-oct-2-enoic acid] | 31% | 33% | 26% | 32% | 48.3% | significant antiradical activity; also recorded: most significant antiradical activity
Cl.NCCCCCC/C=C/C(=O)O [Compound No. 8, (E)-9-amino-non-2-enoic acid] | 22% | 25% | 20% | 19% | 56.6% | significant antiradical activity; also recorded: most significant antiradical activity
Cl.NCCCCCCC=C(F)C(=O)O [Compound No. 9, 9-amino-2-fluoro-non-2-enoic acid] | 18% | 20% | 23% | 18% | 27.5% | significant antiradical activity
Cl.NCCCCCCCCCCCC=C(F)C(=O)O [Compound No. 10, 14-amino-2-fluoro-tetradec-2-enoic acid] | 20% | 25% | 18% | 15% | 23.9% | significant antiradical activity
Cl.NCCCCCCCCCCC/C=C/C(=O)O [Compound No. 11, (E)-14-amino-tetradec-2-enoic acid] | 20% | 19% | 22% | 19% | -26.3% | 
NCCC/C=C(\F)C(=O)O [compound 3, (Z)-6-amino-2-fluoro-hex-2-enoic acid] | 15% | 11% | 5% | 1% | -4% | 
NCCCC/C=C(\F)C(=O)O [compound 6, (Z)-7-amino-2-fluoro-hept-2-enoic acid] | 31% | 30% | 21% | 26% | 49.8% | significant antiradical activity; also recorded: most significant antiradical activity
